Results reported in EP4559919A1, “TRICYCLIC-CONTAINING MACROCYCLIC COMPOUND AND USE THEREOF” (Medshine Discovery Inc., priority 2022, dated 2024).

Columns and labels:
CYP2C9 = molecular target: T1, CYP2C9 (Homo sapiens, UniProt P11712); assay: Cytochrome P450 isozyme inhibitory activity test (human liver microsomes); assay type: in vitro ADME; settings: human liver microsomes 0.1 mg/mL; probe substrate Diclofenac
T1 construct: Mixed human liver microsomes (HLM) purchased from Corning Inc; tissue Corning Inc; host or cells: pooled human liver microsomes
Method: To test the inhibitory activity of the compounds of the present disclosure on different subtypes of human liver microsomal cytochrome P450 isozymes.
Mixed human liver microsomes (HLM) purchased from Corning Inc. (Steuben, New York, USA); Diclofenac as the probe substrate (10 µM); Sulfaphenazole as the positive control inhibitor; 4'-Hydroxydiclofenac as the metabolite
Preparation of test system working solution: Human liver microsomes (HLM): HLM stock solution at 20.0 mg/mL, working solution at 0.2 mg/mL, final concentration at 0.1 mg/mL; Potassium phosphate buffer: 100 mM; Cofactor working solution: Magnesium chloride, NADP (nicotinamide adenine dinucleotide phosphate), G6P (glucose-6-phosphate), G6PDH (glucose-6-phosphate dehydrogenase), and phosphate buffer or magnesium chloride, NADPH (reduced nicotinamide adenine dinucleotide phosphate) powder, and potassium phosphate buffer; prepared into cofactor working solution at appropriate ratios;
Stop solution: Isotope-labeled 4'-hydroxydiclofenac-d4 stock solution prepared in methanol, then prepared into stop solution using acetonitrile.
In the substrate-free control sample wells of the reaction plate, 100 µL of a mixture of human liver microsome and potassium phosphate buffer was added. At the zero-time point sample wells, 98 µL of a mixture of the human liver microsome and potassium phosphate buffer was added. In the no-inhibitor control (NIC), test compound, and positive control inhibitor sample wells of the reaction plate, 100 µL of a mixture of the human liver microsome and substrate was added. From the dilution plate, 2 µL of blank solvent, test compound working solution (three parallels), and positive control inhibitor working solution (two parallels) were added to the reaction plate. The reaction plate was preheated at 37.0°C for 10 minutes. […] The concentration of specific metabolites in the samples was detected using the liquid chromatography-tandem mass spectrometry (LC-MS/MS) method. […] The IC50 values were calculated using a three-parameter or four-parameter inverse log equation.

CYP3A4-M = molecular target: T2, CYP3A4-M (Homo sapiens, UniProt P08684); assay: as above; assay type: in vitro ADME; settings: human liver microsomes 0.1 mg/mL
T2 construct: Mixed human liver microsomes (HLM) purchased from Corning Inc; tissue Corning Inc; host or cells: pooled human liver microsomes

TRKB = molecular target: T3, TRKB (Homo sapiens, UniProt Q16620); assay: In vitro kinase inhibitory activity assay, Experimental method 2 (ADP-Glo); assay type: biochemical; settings: Experimental method 2; ATP 5.0 µM, substrate PolyE4Y1; read-out: Kinase half maximal inhibitory concentration IC50 TRKB
T3 construct: purchased Carna

CYP1A2 = molecular target: T4, CYP1A2 (Homo sapiens, UniProt P05177); assay: Cytochrome P450 isozyme inhibitory activity test (human liver microsomes); assay type: in vitro ADME; settings: human liver microsomes 0.1 mg/mL
T4 construct: Mixed human liver microsomes (HLM) purchased from Corning Inc; tissue Corning Inc; host or cells: pooled human liver microsomes
T4 sequence (P05177 1-516): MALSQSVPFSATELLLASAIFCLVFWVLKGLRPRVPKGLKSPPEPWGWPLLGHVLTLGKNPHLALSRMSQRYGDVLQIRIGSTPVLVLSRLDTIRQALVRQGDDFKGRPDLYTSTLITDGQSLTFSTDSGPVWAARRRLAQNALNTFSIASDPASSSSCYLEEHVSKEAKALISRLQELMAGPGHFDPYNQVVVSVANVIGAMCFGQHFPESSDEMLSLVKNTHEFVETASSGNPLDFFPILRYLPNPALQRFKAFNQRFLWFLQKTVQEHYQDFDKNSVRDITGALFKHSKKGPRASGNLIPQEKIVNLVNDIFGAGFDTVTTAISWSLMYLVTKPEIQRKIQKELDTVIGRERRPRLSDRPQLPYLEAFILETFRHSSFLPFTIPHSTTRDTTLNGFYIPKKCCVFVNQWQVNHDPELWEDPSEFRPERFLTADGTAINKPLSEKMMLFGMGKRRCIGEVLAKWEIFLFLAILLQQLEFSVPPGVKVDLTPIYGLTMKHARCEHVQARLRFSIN

T1 sequence (P11712 whole entry): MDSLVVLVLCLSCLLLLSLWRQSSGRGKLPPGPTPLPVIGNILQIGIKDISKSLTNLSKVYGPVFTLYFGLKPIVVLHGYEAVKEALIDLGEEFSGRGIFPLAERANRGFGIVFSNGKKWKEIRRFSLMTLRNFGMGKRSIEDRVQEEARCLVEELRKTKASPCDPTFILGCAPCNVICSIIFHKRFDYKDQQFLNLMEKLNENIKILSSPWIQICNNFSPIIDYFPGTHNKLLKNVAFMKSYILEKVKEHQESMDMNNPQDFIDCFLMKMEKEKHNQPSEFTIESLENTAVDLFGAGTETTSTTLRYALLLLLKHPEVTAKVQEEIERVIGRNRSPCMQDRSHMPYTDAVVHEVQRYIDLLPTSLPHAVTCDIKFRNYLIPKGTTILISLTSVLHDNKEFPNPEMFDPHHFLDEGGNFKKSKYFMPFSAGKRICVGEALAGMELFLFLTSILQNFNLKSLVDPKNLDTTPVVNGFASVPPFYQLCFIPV
T3 sequence (Q16620 32-822): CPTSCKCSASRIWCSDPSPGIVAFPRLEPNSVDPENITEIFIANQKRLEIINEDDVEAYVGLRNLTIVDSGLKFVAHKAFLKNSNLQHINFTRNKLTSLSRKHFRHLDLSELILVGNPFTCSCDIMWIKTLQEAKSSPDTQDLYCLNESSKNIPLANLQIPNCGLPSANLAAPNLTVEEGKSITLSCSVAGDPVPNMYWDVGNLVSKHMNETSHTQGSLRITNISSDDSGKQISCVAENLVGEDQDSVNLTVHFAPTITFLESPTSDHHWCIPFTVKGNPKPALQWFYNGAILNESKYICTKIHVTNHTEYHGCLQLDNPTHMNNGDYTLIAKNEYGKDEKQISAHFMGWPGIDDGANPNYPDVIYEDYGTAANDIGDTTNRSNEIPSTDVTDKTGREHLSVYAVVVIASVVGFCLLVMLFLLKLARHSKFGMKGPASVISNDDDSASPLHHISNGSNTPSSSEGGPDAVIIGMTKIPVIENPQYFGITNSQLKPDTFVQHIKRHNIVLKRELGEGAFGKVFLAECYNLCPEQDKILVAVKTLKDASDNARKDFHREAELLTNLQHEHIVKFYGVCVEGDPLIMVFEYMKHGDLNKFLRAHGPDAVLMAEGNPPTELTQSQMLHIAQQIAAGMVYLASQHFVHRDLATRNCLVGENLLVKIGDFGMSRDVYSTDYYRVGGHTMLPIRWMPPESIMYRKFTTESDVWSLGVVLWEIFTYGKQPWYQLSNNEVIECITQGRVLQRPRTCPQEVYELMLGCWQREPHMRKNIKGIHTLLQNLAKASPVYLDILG
T2 sequence (P08684 whole entry): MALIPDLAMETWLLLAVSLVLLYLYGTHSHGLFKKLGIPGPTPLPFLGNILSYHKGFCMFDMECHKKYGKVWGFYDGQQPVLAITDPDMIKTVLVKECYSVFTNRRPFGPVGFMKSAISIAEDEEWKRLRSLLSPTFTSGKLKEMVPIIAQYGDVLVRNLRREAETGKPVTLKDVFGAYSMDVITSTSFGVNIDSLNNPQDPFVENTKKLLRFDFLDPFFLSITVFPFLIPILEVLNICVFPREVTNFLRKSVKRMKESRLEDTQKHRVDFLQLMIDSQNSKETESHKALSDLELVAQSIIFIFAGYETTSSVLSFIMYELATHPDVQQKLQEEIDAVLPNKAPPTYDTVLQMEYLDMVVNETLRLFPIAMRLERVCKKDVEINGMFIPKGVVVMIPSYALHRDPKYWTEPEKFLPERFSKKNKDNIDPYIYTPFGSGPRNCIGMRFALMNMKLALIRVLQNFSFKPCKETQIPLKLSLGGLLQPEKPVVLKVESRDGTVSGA

For `Cc1nn2cc3c4nc2c1C(=O)NC1(CC1)COc1ccc(F)cc1CN4[C@H](C(F)F)CO3` [Compound 016], the IC50 (CYP2C9) was 3.12 µM, the IC50 (CYP3A4-M) was > 50 µM and the IC50 (TRKB) was 0.0003 µM. The IC50 (CYP1A2) was > 50 µM.
